For one assay, the system named is ID8agg and B16 cells. Nature of the assay: Chlorambucil in vitro cell growth, viability, apoptosis and calreticulin. The format is cell-based, mouse. On the procedure: FIGS. 34A-D: FIG. 34A, Cells cultured in vitro with chlorambucil at indicated concentrations and counts determined on Vi-Cell. p-value, unpaired t-test. VC, vehicle control. FIG. 34B, Annexin V-FITC/PI (AV/PI) dual staining assay. Upper left, necrotic cells). Lower left, live cells. Lower right, early apoptotic cells and upper right, late apoptotic cells. ID8agg (CAMB 5 μM) and B16 (CAMB 10 μM) cells were treated for 48 hours. FIG. 34C, CAMB-treated ID8agg and B16 cells stained with an isotype control or an anti-calreticulin (CRT) antibody followed by immunofluorescence cytometry. FIG. 34D, Tumor cells were treated with the indicated concentrations with CAMB 48 h. Cell viability was detected by CCK-8 assay and relative cell viability ratio were compared between WT cells and PD-L1KO or PD-Lllo cells at different concentration point.
Cell proliferation and viability assays: Cells (0.5-1×10^3) were plated in 96-well plastic culture plates in 100 μL medium and treated with CAMB. Cell viability was determined by a cell counting kit-8 (CCK-8) (Sigma). Absorbance was measured at 450 nm using a BioTek Synergy 2 Multi-Mode Plate Reader. Proliferation was assessed in triplicate in three separate experiments for in vitro all data shown.
Flow cytometry: Mice were sacrificed by cervical dislocation after induction of deep isoflurane anesthesia. ID8agg tumors were collected and cells were stained as described (Derup et al., 2020) using LSR II hardware and analyzed by FACS Diva (BD Bioscience) or Flow Jo software (Flow Jo, LLC). Anti-mouse (clone 10F.9G2) and human (clone 29E.2A3) PD-L1 [both PE/Cy7, Cat #124314 (mouse) 329718 (human)] were matched with isotype control. Apoptosis assessment used Annexin V and propidium iodide (Thermo Scientific) per manufacturer instruction.

In another assay the test system is ID8agg tumors. Format: in vivo, mouse. The text has this: Mice and in vivo treatments: Wild-type (WT) C57BL/6 mice NSG were purchased from Jackson Labs (Bar Harbor, ME), bred in our animal facility and used at 7-20 weeks old. All mice were given ad libitum water and food and housed under specific pathogen-free conditions. Mice used here were matched for sex and age in each experiment. 1×10^5 control or PD-L1^KOB16 cells were given subcutaneously (SQ, both sexes). 4×10^6 control or PD-L1^lo ID8agg cells in log growth phase were given intraperitoneally (females only). B16 tumor growth was measured with Vernier calipers and volume was calculated as (length×width^2)/2. Intraperitoneal ID8agg tumor growth was determined by IVIS Lumina Imaging System (Perkin Elmer; Waltham, MA) 15 minutes after i.p. injection of 3 mg of PBS-dissolved d-luciferin K+ (Gold Biotechnology; St. Louis, MO) with 30 second exposures, medium binning, and F/stop=1. Identical regions of interest were drawn over each subject's abdomen and average radiance (photons/see/cm2/sr) was quantified with Living Image software version 4.2. Body weight was measured every week for PD-L1^lo ID8agg mice as a surrogate for tumor growth, and tumors were weighed at end-experiment in confirmation. Survival was determined as >1500 mm^3 for SQ tumors and distress or >20% mouse weight gain for PD-L1^lo ID8agg tumors. Intraperitoneal injection of chlorambucil was given at indicated doses (optimized for each tumor and treatment condition in preliminary assessments not shown) for 3 treatment cycles starting 7 days after tumor cell challenge. Each chlorambucil cycle was 5 consecutive days of a single injection followed by two days of rest. αPD-L1 (clone 10F.9G2) or respective isotype control was injected intraperitoneally at 100 μg/mouse every 5 days starting on day 7 after tumor challenge for times indicated.

Structures are written as SMILES.

In the case of `O=C(O)CCCc1ccc(N(CCCl)CCCl)cc1` [chlorambucil], in the assay with ID8agg and B16 cells, the “cell growth in vitro” value is on record as “inhibited cell growth in vitro with little or no killing”, the cell surface calreticulin result is on record as “significantly increased”, the “immunogenic cell death (ICD)” value is “induced ICD independent of tumor PD-L1 status” and the “sensitivity of CTRL cells compared with PD-L1^lo or PD-L1^KO cells” value is on record as “more sensitive”. Besides, the apoptosis entry in the assay on ID8agg and B16 cells (ID8agg or B16 cells) is “did not induce apoptosis”. For the same compound, the “sensitization of ID8agg to αPD-L1” value in the assay on ID8agg tumors (CAMB dose ineffective as a single agent) is “sensitized ID8agg to αPD-L1”. In the assay with ID8agg tumors (ID8agg challenge, ascites), the “tumor PD-L1 in vivo” value is on record as “reduced tumor PD-L1 in ascites”. Also, the “PD-L1^lo ID8agg growth” value with ID8agg tumors (WT mice, dose and schedule as for ID8agg) is “unable to suppress”. The “single agent efficacy at the dose used for the combination” value in the assay with ID8agg tumors (mouse, in vivo) is recorded as “ineffective as a single agent”. In addition, the treatment of tumors entry in the assay on ID8agg tumors (severely immunodeficient NSG mice, ID8agg) is reported as “effectively treated both”. Also, in the assay on ID8agg tumors (wild type mice, ID8agg), the mouse survival result is listed as “prolonged mouse survival” and the tumor volume entry is given as “significantly reduced tumor volume”.

Source of the values: patent US12404332B2, “Methods for diagnosing and treating cancers” (Research Development Foundation, priority 2020, dated 2025).
